Assay results from the NIST ThermoML archive (doi:10.1021/je060271a).

Details: 323.15 K, Liquid, Vibrating tube method

CCCCCCC(=O)OCC(COC(=O)CCCCCC)(COC(=O)CCCCCC)COC(=O)CCCCCC [pentaerythritol tetraheptanoate]
Details | mass density [kg/m3]
16867 kPa | 966.6
16877 kPa | 966.8
16890 kPa | 966.9
16900 kPa | 966.7
16913 kPa | 966.7
17014 kPa | 966.8
17028 kPa | 966.8
17038 kPa | 966.9
17049 kPa | 967
17062 kPa | 966.9
17072 kPa | 966.9
17084 kPa | 966.9
17095 kPa | 966.8
17108 kPa | 966.8
17119 kPa | 967
17131 kPa | 966.9
17142 kPa | 967
17153 kPa | 966.9
17164 kPa | 967
17177 kPa | 967
17188 kPa | 966.9
17201 kPa | 966.9
17212 kPa | 967
17247 kPa | 967
17258 kPa | 966.9
17269 kPa | 967
17282 kPa | 967
17293 kPa | 967
17307 kPa | 967.1
17318 kPa | 967
17389 kPa | 967
17412 kPa | 967.1
17426 kPa | 967
17437 kPa | 967.2
17451 kPa | 967.1
17462 kPa | 967.1
17474 kPa | 967.2
17485 kPa | 967.2
17499 kPa | 967.2
17511 kPa | 967
17536 kPa | 967.2
17548 kPa | 967.2
17559 kPa | 967.3
17573 kPa | 967.2
17584 kPa | 967.3
17596 kPa | 967.2
17610 kPa | 967.2
17621 kPa | 967.1
17633 kPa | 967.2
17647 kPa | 967.2
17746 kPa | 967.4
17760 kPa | 967.3
17772 kPa | 967.3
17810 kPa | 967.3
17822 kPa | 967.2
17836 kPa | 967.4
17848 kPa | 967.3
17861 kPa | 967.3
17873 kPa | 967.3
17899 kPa | 967.4
17962 kPa | 967.4
17976 kPa | 967.5
17989 kPa | 967.4
18016 kPa | 967.4
18029 kPa | 967.5
18041 kPa | 967.5
18053 kPa | 967.5
18066 kPa | 967.5
18080 kPa | 967.5
18092 kPa | 967.4
18107 kPa | 967.5
18119 kPa | 967.5
18132 kPa | 967.6
18146 kPa | 967.5
18159 kPa | 967.5
18186 kPa | 967.6
18524 kPa | 967.9
18537 kPa | 967.8
18550 kPa | 967.9
18565 kPa | 967.6
18579 kPa | 967.8
18594 kPa | 967.7
18608 kPa | 967.8
18621 kPa | 967.8
18634 kPa | 967.9
18650 kPa | 967.8
18663 kPa | 967.8
18676 kPa | 967.8
18692 kPa | 967.9
18704 kPa | 967.9
18721 kPa | 967.9
18734 kPa | 967.9
18747 kPa | 967.9
18761 kPa | 967.9
18777 kPa | 967.8
18790 kPa | 968
18803 kPa | 968
18820 kPa | 968
18833 kPa | 967.9
18848 kPa | 968
18862 kPa | 968
18876 kPa | 968
18889 kPa | 968.1
18906 kPa | 968
18950 kPa | 968
18977 kPa | 968.1
18993 kPa | 967.9
19007 kPa | 968.1
19021 kPa | 968.1
19037 kPa | 968.1
19051 kPa | 968.2
